From US20070293493A1, “OXAZOLIDINONE ANTIBIOTICS AND DERIVATIVES THEREOF” (priority 2003, published 2007) come the findings set out here.

Usually MIC stands for the smallest concentration in the dilution series that meets the test's criterion for growth inhibition.

What all share (assay type): cell-based
The subject of assay [1] is Staphylococcus aureus CR (chloramphenicol resistant). The assay is described as follows: MIC, agar dilution method, Mueller-Hinton agar. As to conditions: 35° C., 24 hours. The protocol: (§1) The following in vitro results were obtained based on an agar dilution method except for C. pneumoniae. The activity is presented as the minimum inhibitory concentration (MIC).
(§2) S. aureus and M. catarrhalis were tested on Mueller-Hinton agar, using an approximate inoculum of 1×10^4 cfu/spot an incubation temperature of 35° C. for 24 hours. The MIC was defined as the lowest concentration at which no visible bacterial growth was observed.
On the technique in general: In agar dilution the substance is mixed into plates at graded concentrations.

Assay [2] relates to Staphylococcus aureus MR (methicillin resistant). Briefly: MIC, agar dilution method, Mueller-Hinton agar. As to conditions: 35° C., 24 hours. As for the experimental part: as §1, §2
For assay [3], the system named is Staphylococcus aureus Smith. Briefly: MIC, agar dilution method, Mueller-Hinton agar. As to conditions: 35° C., 24 hours. As for the experimental part: as §1, §2
In assay [4] the test system is Moraxella catarrhalis ATCC25238. The assay is described as follows: MIC, agar dilution method, Mueller-Hinton agar. As to conditions: 35° C., 24 hours. As for the experimental part:
as §1, §2

Assay [5] concerns Streptococcus pneumoniae IID553. Briefly: MIC, agar dilution method, Mueller-Hinton agar with 5% defibrinated horse blood. As to conditions: 35° C., 5% CO2, 24 hours. The protocol:
as §1
(§3) Streptococci and enterococci were tested on Mueller-Hinton agar supplemented with 5% defibrinated horse blood, using an approximate inoculum of 1×10^4 cfu/spot an incubation temperature of 35° C. in an atmosphere of 5% CO2 for 24 hours. The MIC was defined as the lowest concentration at which no visible bacterial growth was observed.

Assay [6] deals with Streptococcus pyogenes IID692. Described as above. As to conditions: 35° C., 5% CO2, 24 hours. As for the experimental part: as §1, §3
For assay [7], the system named is Enterococcus faecium VRQR (vancomycin resistant, quinolone resistant). The assay is described as above. As to conditions: 35° C., 5% CO2, 24 hours. The protocol: as §1, §3
The test system of assay [8] is Streptococcus pneumoniae PRQR (penicillin resistant, quinolone resistant). The description is as above. As to conditions: 35° C., 5% CO2, 24 hours. The protocol: as §1, §3

Molecules are shown by their SMILES. ≈ marks a conversion by molar mass, not a printed value. Where two headings read alike, the source gives them in different places.

Consider `N[C@@H]1[C@H]2CN(c3c(F)cc(N4C[C@H](Cn5ccnn5)OC4=O)cc3F)C[C@@H]12` [example 2, 1-[5(R)-3-[4-[(1α,5α,6α)-6-Amino-3-azabicyclo[3.1.0]hexan-3-yl]-3,5-difluorophenyl]-2-oxooxazolidin-5-ylmethyl]-1,2,3-triazole], for which the MIC in assay [1] (read-out: MIC) turned out to be 2 µg/mL (≈ 5.31 µM); in assay [2] (read-out: MIC), 0.25 µg/mL (≈ 0.664 µM); in assay [3] (read-out: MIC), 0.125 µg/mL (≈ 0.332 µM); in assay [4] (read-out: MIC), 1 µg/mL (≈ 2.66 µM); in assay [5] (read-out: MIC) it was 0.25 µg/mL (≈ 0.664 µM); in assay [6] (read-out: MIC) it was 0.25 µg/mL (≈ 0.664 µM). Further, the figures for the minimum inhibitory concentration (MIC) in assay [7] (read-out: MIC) and in assay [8] (read-out: MIC) were 1 µg/mL (≈ 2.66 µM) and 0.25 µg/mL (≈ 0.664 µM), respectively.
Turning to `N#C[C@@H]1[C@H]2C=C(c3ccc(N4C[C@H](Cn5ccnn5)OC4=O)cc3F)C[C@@H]12` [example 8, 1-[5(R)-3-[4-[(1α,5α,6α)-6-Cyanobicyclo[3.1.0]hex-2-en-3-yl]-3-fluorophenyl]-2-oxooxazolidin-5-ylmethyl]-1,2,3-triazole], the minimum inhibitory concentration (MIC) in assay [1] amounted to 1 µg/mL (≈ 2.74 µM); in assay [2] it was 0.06 µg/mL (≈ 0.164 µM); in assay [3], 0.125 µg/mL (≈ 0.342 µM); in assay [4], 1 µg/mL (≈ 2.74 µM); in assay [5] it was 0.5 µg/mL (≈ 1.37 µM); in assay [6], 0.125 µg/mL (≈ 0.342 µM). Further, the MIC in assay [7] and in assay [8] was 0.25 µg/mL (≈ 0.684 µM) throughout.
